Results reported in patent US20150283127A1, “SAQUINAVIR-NO FOR IMMUNOMODULATION” (ONCONOX APS, priority 2012, published 2015).

Key:
murine CD4+ cells = assay: Viability of murine CD4+ cells; assay type: cell-based, mouse; details: 24 hours; effect less than on cytokine generation
Method: In order to assess the viability of SPC, LNC, DLNC and SCC by mitochondrial activity assay we used the mitochondrial-dependent reduction of 3-(4,5-dimethylthiazol-2-yl)-[…] (MTT) to formazan. At the end of appropriate treatments, SPC and LNC were collected in tubes, spun down, supernatants removed and the cell pellets dissolved in […] MTT (Sigma-Aldrich) solution. Incubation with MTT lasted for 30 minutes at 37° C. and cells were centrifuged once more. DMSO was added to the pellets to dissolve the formazan crystals. The absorbances in MTT assay were measured at […], with a correction at 690 nm, using an automated microplate reader (LKB 5060-006, LKB, Vienna, Austria).
CD4+ cells were purified from C57BL/6 SPC and stimulated with anti-CD3 and anti-CD28 antibodies in the presence of various concentrations of Saq-NO for 24 hours. The influence of Saq-NO on cytokine generation was compared to its influence on CD4+ cell viability and to the influence of Saq on the same parameters. […] Thus, Saq-NO directly affects T cell cytokine production.

murine SPC = assay: Viability of murine SPC (MTT mitochondrial activity assay); assay type: cell-based, mouse; details: minor compared with the influence on cytokines
Source text: (§1) Experimental animals (C57BL/6 mice, BALB/c mice and Dark Agouti rats) were obtained from the Animal House Facility of the Institute for Biological Research “Sinisa Stanković”, Belgrade, Serbia. Spleen cells (SPC) were isolated from murine spleens and lymph node cells (LNC) were obtained from rat cervical lymph nodes of untreated animals. Draining lymph node cells (DLNC) were obtained from popliteal lymph nodes 8-10 days after immunization of rats with myelin basic protein (guinea pig MBP, kind gift from professor Alexander Fluegel, University of Goettingen, Germany) and complete Freund's adjuvant (CFA, Difco, Detroit, Mich.). The organs were mechanically disrupted, passed through 40-μm nylon mesh filter and the resulting suspension was collected by centrifugation. Red blood cells from single cell suspensions obtained from spleens were lysed using RBC Lysis Buffer (eBioscience, San Diego, Calif.). […] Obtained purity of CD4 population was more than 97% as determined by flow cytometry. […]
(§2) In order to assess the viability of SPC, LNC, DLNC and SCC by mitochondrial activity assay we used the mitochondrial-dependent reduction of 3-(4,5-dimethylthiazol-2-yl)-2,5-[…] bromide (MTT) to formazan. […] The absorbances in MTT assay were measured at […], with a correction at 690 nm, using an automated microplate reader (LKB 5060-006, LKB, Vienna, Austria).

rat LNC = assay: Viability of rat LNC (MTT mitochondrial activity assay); assay type: cell-based; details: ConA, 24 hours, difference not statistically significant
Source text: as §1, §2

[1] = mice subjected to the treatment; cited from earlier work
SCC = assay: IFN-g and IL-17 release from rat spinal cord infiltrating cells (SCC); assay type: cell-based; details: unstimulated SCC isolated at the peak of EAE
Source text: Experimental animals (C57BL/6 mice, BALB/c mice and Dark Agouti rats) were obtained from the Animal House Facility of the Institute for Biological Research “Sinisa Stanković”, Belgrade, Serbia. Spleen cells (SPC) were isolated from murine spleens and lymph node cells (LNC) were obtained from rat cervical lymph nodes of untreated animals. Draining lymph node cells (DLNC) were obtained from popliteal lymph nodes 8-10 days after immunization of rats with myelin basic protein (guinea pig MBP, kind gift from professor Alexander Fluegel, University of Goettingen, Germany) and complete Freund's adjuvant (CFA, Difco, Detroit, Mich.). […] Obtained purity of CD4 population was more than 97% as determined by flow cytometry. […]
Cytokine concentration in cell culture supernatants was determined by sandwich ELISA using MaxiSorp plates (Nunc, Rochild, Denmark) and anti-cytokine paired antibodies according to the manufacturer's instructions. Samples were analyzed in duplicate for murine/rat IL-17, murine IL-10, murine TNF, murine IL-4 (eBioscience), murine IFN-γ, rat IFN-γ, rat IL-4 (R&D, Minneapolis, Minn.), rat IL-10 and rat TNF (BD Biosciences). The results were calculated using standard curves made on the basis of known concentrations of the appropriate recombinant cytokines.
Next, we determined the influence of Saq-NO on encephalitogen-specific generation of IFN-g and IL-17. […]

spleen cells = details: ex vivo, cited from earlier work

Compound	CD4+ cell viability (murine CD4+ cells)	SPC viability (murine SPC)	LNC viability (rat LNC)	Toxicity in mice [1]	IFN-g and IL-17 release (SCC)	IL-1 beta, IL-10 and TNF-alpha production (spleen cells; in vivo exposure)	IFN-gamma and IL-2 secretion by spleen cells vs control mice (spleen cells; mice previously treated)
CC(C)(C)NC(=O)C1C[C@@H]2CCCC[C@@H]2CN1CC(O[N+](=O)[O-])[C@H](Cc1ccccc1)NC(=O)C(CC(N)=O)NC(=O)c1ccc2ccccc2n1 (stereo partly shown) [Saq-NO, nitric ester of Saquinavir]	statistically significantly inhibited	statistically significantly inhibited	affected only with the highest dose	no toxicity	potently inhibited		
CC(C)(C)NC(=O)[C@@H]1C[C@@H]2CCCC[C@@H]2CN1C[C@@H](O)[C@H](Cc1ccccc1)NC(=O)[C@H](CC(N)=O)NC(=O)c1ccc2ccccc2n1 [Saq, (2S)—N-[(2S,3R)-4-[(3S)-3-(tert-butylcarbamoyl)-decahydroisoquinolin-2-iy]-3-hydroxy-1-phenylbutan-2-il]-2-(quinolin-2-ylformamido)butanediamide, reference compound]						not modified	secreted more
